According to paper PMC6433232, “Targeting mitochondria in cancer therapy could provide a basis for the selective anti-cancer activity” (PLoS ONE, 2019):

What was measured:
[1] = system: pancreatic cancer MIA PaCa-2 cells; assay: cells; details: for EC50 / CC50: Homo sapiens; for EC50: MIA PaCa-2, read-out: EC50, μM MIA PaCa-2; for CC50: MIA PaCa-2, read-out: LC50 MIA PaCa-2
Method: Fig 1 A, Structure of NSC130362. B, Dose response curve of NSC130362 in MIA PaCa-2 cells. Cells were pre-incubated with NSC130362 for 2 h followed by addition of ATO (5 μM) and incubation for an additional 24 h. At the end of the treatment, the ratio of dead cells was determined by a CellTiterGlo reagent.

[2] = system: breast carcinoma HCC1187 cells; assay: cells; format: cell-based; details: Homo sapiens, HCC1187; compound alone; unit not given in Table 1; read-out: LC50 HCC1187
From the text: For further analyses, we used compounds that have the selective cytotoxicity index either above 20 (non-toxic compounds) or below 1 (toxic compounds) with the aim to identify targets that are responsible for the selective activity of the identified compounds toward cancer cells. To confirm that the effects of the selected compounds are not only specific to MIA PaCa-2 cells, we evaluated their cytotoxic activities on breast carcinoma HCC1187 cells (Table 1). […] For easy comparison, the data with MIA PaCa-2 cells were also included in Table 1. […] We also noticed that, again with a few exceptions, HCC1187 cells are more resistant to the non-toxic compounds in the presence of ATO as compared to MIA PaCa-2 cells. In contrast, HCC1187 cells are more sensitive to all toxic compounds in the presence of ATO as compared to MIA PaCa-2 cells. The high sensitivity of HCC1187 cells to toxic compounds contributed to the increased selective cytotoxicity index.

[3] = system: hepatocytes; assay: Hydrogen peroxide cell-based assay (ROS induction), hepatocytes; set-up: species or system Human; details: 30 μM; hydrogen peroxide level relative to DMSO-treated cells (100%)
Method: Cells were incubated for 2 h with either compounds (30 μM) or DMSO in a 96-well plate. After the treatment, 80 μl of cell culture medium was collected and the level of hydrogen peroxide was determined using a Hydrogen Peroxide Cell-Based Assay kit (Cayman).
Cells were incubated with the compounds for 4 h and the level of ROS induction was measured by a hydrogen peroxide cell-based assay kit. Compounds were assayed at a fixed concentration of 30 μM and the measured level of hydrogen peroxide was expressed as percentage in relation to DMSO-treated cells (100%). […] This distinction was more evident for compounds with the highest selective cytotoxicity index. […] We conclude that the selective induction of ROS in cancer cells is required but not sufficient factor for the selective anti-tumor activity.

[4] = target: T1, human GSR enzyme (recombinant GSR) (Homo sapiens, UniProt P00390); assay: Glutathione reductase (GSR) activity assay; format: biochemical; details: for remaining activity at 30 µM: 2 h at 25°C, read-out: GSR, enzyme residual activity as compared to DMSO-treated sample; for inhibition at 30 µM: read-out: GSR-inhibiting activity
T1 construct: made in house; host or cells: E. coli BL21(DE3)
T1 sequence (P00390 44-522): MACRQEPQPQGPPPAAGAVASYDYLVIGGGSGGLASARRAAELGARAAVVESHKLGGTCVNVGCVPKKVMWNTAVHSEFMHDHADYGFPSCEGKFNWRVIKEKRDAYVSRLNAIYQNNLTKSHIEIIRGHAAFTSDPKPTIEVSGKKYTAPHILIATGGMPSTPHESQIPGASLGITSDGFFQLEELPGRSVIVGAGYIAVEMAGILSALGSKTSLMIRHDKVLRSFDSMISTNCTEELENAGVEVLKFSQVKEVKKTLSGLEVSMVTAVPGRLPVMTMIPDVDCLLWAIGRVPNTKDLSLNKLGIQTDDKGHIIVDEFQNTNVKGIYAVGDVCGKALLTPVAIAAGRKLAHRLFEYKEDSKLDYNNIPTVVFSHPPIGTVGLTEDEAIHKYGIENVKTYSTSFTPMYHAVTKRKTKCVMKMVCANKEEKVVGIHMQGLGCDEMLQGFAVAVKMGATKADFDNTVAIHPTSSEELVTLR
Method: Recombinant GSR (0.5 u/well) in a 96-well plate was incubated in the GSR assay buffer (50 mM potassium phosphate buffer, pH 7.5 supplemented with 1 mM EDTA), 100 μl with and without compound (30 μM) for 2 h at 25°C. At the end of incubation, 100 μl of solution containing NADPH (0.087 mM), oxidized glutathione (GSSG) (0.95 mM) and 1 μl of the reagent that detects ratio of GSSG to reduced glutathione (GSH) (Abcam) were added and the mixture was incubated for an additional 1 h at 25°C. GSR activity was measured by using 490-nm excitation and monitoring fluorescence at 520 nm with a fluorescence plate reader. One unit of GSR activity was defined as the amount of enzyme required to produce 1 μM of GSH in a total reaction volume of 200 μl in 1 minute in the GSR assay buffer containing NADPH (0.087 mM), GSSG (0.95 mM) and 1 μl of GSH/GSSG ratio detection reagent (Abcam).
Next, we evaluated the inhibitory activity of the selected compounds against human GSR enzyme using recombinant GSR and Abcam GSH/GSSG ratio detection reagent (Table 1). Briefly, GSR activity was measured by following oxidized glutathione (GSSG) reduction in the presence of NADPH and expressed as percentage of residual activity with respect to DMSO-treated enzyme. The residual activity of GSR for both the non-toxic and toxic compounds was quite heterogeneous, ranging from 100% (compounds 38) to 3% (compound 32). […] We thus conclude that GSR inhibitory activity alone cannot be used to predict the selective cytotoxicity index.

[5] = target: T2, human GAPDH enzyme (Homo sapiens, UniProt P04406); assay: GAPDH activity assay in MIA PaCa-2 cells; format: cell-based; details: 2 h; for remaining activity at 30 µM: read-out: GAPDH, enzyme residual activity as compared to DMSO-treated sample
T2 construct: endogenous in cells; host or cells: MIA PaCa-2 cells
Method: Cells were incubated for 2 h with either compounds (30 μM) or DMSO in a 6-well plate. Next, cells were collected in 200 μl of PBS and disrupted by sonication. Insoluble material was removed by centrifugation. The level of GAPDH activity was determined by GAPDH activity assay kit (BioVision).
As a final step, we evaluated the inhibitory activity of the selected compounds against human GAPDH enzyme in a cell-based assay using MIA PaCa-2 cells (Table 1). Cells were pre-incubated with compounds for 2 h at 37°C followed by cell lysis using sonication and GAPDH activity assay. The ability of compounds to inhibit GAPDH was expressed as percentage of GAPDH residual activity with respect to DMSO-treated cells. […] Similar to the GSR activity assay, only two of the most toxic compounds 31 and 32, were able to inhibit GAPDH by 95 and 97%, respectively.

[6] = Distribution coefficient LogD; format: physicochemical; details: octanol/water, pH 7.4; read-out: LogD, pH = 7.4
From the text: We conclude that the analysis of the octanol-water partitioning is not sufficient to establish a link between degree of lipophilicity and biological activities of the selected compounds.

[7] = in vitro; details: human, primary hepatocytes
From the text: We selected hepatocytes as normal cells because hepatocytes are mediate toxicity to multiple drugs and are used as a standard to assess toxicity of drugs in vitro [28]. […] For comparison with the standard of care, doxorubicin was also included in this analysis.

[8] = system: Complex I (bovine heart mitochondria); assay: MitoCheck Complex I activity assay; details: 30 μM; for Mito Check I, enzyme residual activity as compared to DMSO-treated sample: bovine heart mitochondria, NADH oxidation
Method: MitoCheck Complex I activity was determined as described in the manual of the manufacturer’s manual (Cayman). Briefly, compounds (30 μM) or DMSO were mixed with the Complex I activity assay buffer that contained bovine heart mitochondria reagent, NADH, and ubiquinone in the presence of KCN to inhibit complex IV activity. The level of Complex I activity was monitored in a kinetic assay of NADH oxidation by measuring a decrease in absorbance at 340 nm. The residual Complex I activity was calculated by dividing the rate of compound wells by the rate of DMSO wells for the linear portion of the curve.
To test possible effects of compounds on ETC, we analyzed the Complex I-mediated NADH oxidation using a MitoCheck Complex I Activity Assay Kit. The level of NADH oxidation was measured by a decrease in absorbance at 340 nm and expressed as percentage of residual activity in relation to DMSO-treated mitochondria (Table 1). […] Complex I activity was estimated by the rate of NADH oxidation which was also affected by NADH/NADPH-dehydrogenase-mediated redox cycling.

T2 sequence (P04406 whole entry): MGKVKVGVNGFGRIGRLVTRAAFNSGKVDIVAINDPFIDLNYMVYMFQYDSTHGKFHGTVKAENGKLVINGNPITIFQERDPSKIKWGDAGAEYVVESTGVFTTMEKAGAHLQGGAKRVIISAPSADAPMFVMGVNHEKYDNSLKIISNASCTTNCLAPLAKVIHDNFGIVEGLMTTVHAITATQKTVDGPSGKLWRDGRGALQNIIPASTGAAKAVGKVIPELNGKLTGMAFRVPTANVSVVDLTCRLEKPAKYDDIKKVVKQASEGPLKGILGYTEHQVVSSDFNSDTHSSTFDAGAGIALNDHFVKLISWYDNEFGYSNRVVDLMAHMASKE

| SMILES | EC50 [1] [µM] | CC50 [1] [µM] | CC50 [2] [µM] | ROS increase, % Hepatocytes [3] [%] | remaining activity at 30 µM [4] [%] | inhibition at 30 µM [4] [%] | remaining activity at 30 µM [5] [%] | logD [6] | CC50 [7] [µM] | Mito Check I, enzyme residual activity as compared to DMSO-treated sample [8] [%] | reduced anti-cancer activity ([1]; versus compound 1) [fold] | inhibition of mitochondrial function (Complex I) [8] [%] | stimulation of Complex I activity [8] | inhibition of GAPDH ([5]; 30 μM) | inhibition at 30 µM [5] [%] |
| --- | --- | --- | --- | --- | --- | --- | --- | --- | --- | --- | --- | --- | --- | --- | --- |
| CCCCCCCNC1=C(Cl)C(=O)c2ccccc2C1=O [compound 8] | > 90 | > 90 | 56.1 | 115 | 93 | 7 | 100 | 0.17 | 78.6 | 116 |  |  |  |  |  |
| COCCNC1=C(Cl)C(=O)c2ccccc2C1=O [compound 21] | 13.8 | 13.8 | 5.2 | 154 | 65 |  | 100 | 0 | 60.4 | 104 |  |  |  |  |  |
| O=C1C(Cl)=C(Nc2ccccc2)C(=O)c2ccccc21 [compound 39] | 3.9 | 3.9 | 1.7 | 174 | 92 |  | 93 | 0.13 | 2.3 | 91 | 8 | 9 |  |  |  |
| NC1=C(Cl)C(=O)c2ccccc2C1=O [compound 1, 2-chloro-3-amino-1,4-NQ] | 8.4 | 8.4 | 10.8 | 156 | 33 | 67 | 100 | 2.01 | 17 | 145 |  |  | more than 30% |  |  |
| CCCCC(=O)NC1=C(Cl)C(=O)c2ccccc2C1=O [compound 32] | 10.2 | 10.2 | 0.3 | 249 | 1 | 99 | 3 | 2.79 | 2.2 | 135 |  |  | more than 30% | almost completely inhibited GAPDH | 97 |
| CC(C)(C)NC1=C(Cl)C(=O)c2ccccc2C1=O [compound 13] | 7.2 | 7.2 | 28.7 | 123 | 45 |  | 100 | 0.52 | 29.9 | 84 |  |  |  |  |  |
| Cc1ccccc1NC1=C(Cl)C(=O)c2ccccc2C1=O [compound 40] | 78.5 | 78.5 | 9 | 122 | 72 |  | 88 | 0 | 24.5 | 103 |  |  |  |  |  |
